Results from EP3375430A1, “FRAGRANCE COMPOSITIONS” (Takasago International Corporation, priority 2017, dated 2018).

Legend:
[1] = Amount of fragrance ingredients retained on paper blotter after evaporation (ethanol extraction, GC-MS); type: physicochemical
Procedure: A fragrance (hereafter fragrance TAK, the formulation of which is shown in table 1) was formulated in a typical Eau de Toilette (EdT1) or in fragrance compositions according to the invention (compositions C1 to C4), as shown in table 2. The amount of individual fragrance ingredients retained on paper substrate (blotter) after set time periods was assessed by the following method.
100µL samples of either EdT1 or compositions C1 to C4 were applied to 4.5cm long standard paper blotters with a microsyringe. Three replicate blotters were prepared for each extraction time. After the appropriate evaporation time each of the 3 blotters was transferred to a 30mL glass bottle. 3mL of ethanol and 50µL of a 1% solution of methyl decanoate in ethanol as an internal standard were added. The bottle was sealed and placed on a roller bed to extract the blotter for 1 hour. A sample of the extracting solution was transferred to a vial which was sealed and analysed by gas chromatography (GC 6890) with a Mass Spectrometer detector (MS 5973) using the method described below. The results of the three replicate measurements were averaged. At exact times the same extraction was repeated on the remaining blotters which were stored on a warm surface at 32°C open to the air to allow evaporation. The gas chromatography conditions were as given below.
• Initial Temp: 50°C • Initial Time: 2 min • Rate: 10°C /min • Final Temp: 280°C • Final Time: 5 min • Run Time: 30 min
• Column: HP-5MS 30m * 0.25mm * 0.25µm • Gas: Helium • Constant Pressure 18.55 psi
• Split mode Ratio 40:1 • Inlet Temp: 250°C
• MS 5973 • Mass range: 35 to 350 • Threshold: 100 • Mass Quad: 150°C • Mass Source: 230°C
To simplify the results the average amount of each fragrance ingredient from the 3 samples measured at time zero was set at 100% and all other measurements were then related to that value so tables 3 to 6 show decreasing amounts of fragrance ingredients as a percentage of the initial amount.
The method of example 1 was repeated using a commercial fragrance (hereafter fragrance COM1, the formulation of which is given in table 7) formulated in a typical Eau de Toilette (EdT2) or in fragrance compositions according to the invention (compositions C5 and C6), as shown in table 8.

[2] = Headspace concentration of fragrance ingredients over blotter (thermal desorption GC-MS); type: physicochemical
Procedure: The headspace concentration of individual ingredients of fragrance TAK, as formulated in either a conventional EdT (EdT1) or a fragrance composition of the invention (C1), was assessed by the method described below.
A 10 cm length was cut from a standard perfumers' blotter. A sample of 100µL volume was applied to the upper surface of the blotter with a syringe. The blotter was placed on a hot plate thermostatted at 32°C and left to equilibrate for 5 minutes. Two desorption tubes (6cm length 4mm internal diameter) each containing 2 cm length of Tenax TA adsorbent were fitted to the glass part of a headspace apparatus shown in figure 9. The glass part was fitted over the blotter, a metering pump was connected to one of the desorption tubes and air was drawn through the apparatus flushing the headspace over the blotter at a rate of 17mL/min. Sampling continued for about 16.5 minutes until 280mL of air had been extracted. Then the outlet desorption tube was analysed by gas chromatography as described below. The glass part was removed from the blotter which was left on the hotplate until the next sampling time when two fresh desorption tubes were fitted and the extraction procedure repeated for a further 280mL of extracted headspace.
• Initial Temp: 50°C • Initial Time: 5 min • Rate: 3°C /min • Final Temp: 250°C • Final Time: 20 min • Run Time: 91.67 min
• Column: HP-5MS 30m * 0.25mm * 0.25µm • Gas: Helium • Constant pressure 12.675 psi
• Initial Temp: -30°C • Equilibration Time: 0.05 min • Initial Time: 0.00 min • Rate 12°C / min • End Temp: 260°C • Hold Time: 10 min
Temperature program • Initial Temp: 35°C • Delay Time: 0.30 min • Initial Time: 0.00 min • Rate: 30°C / min • End Temp: 250°C • Hold Time: 5.00 min
TDU Settings • Transfer Temp: 250°C • Transfer Temp Mode: Fixed • Desorption Mode: splitless • Sample mode: Retain tube - standby cooling • Standby Temp: 50°C
Detector MS • MS 5973 • Mass range: 35 to 350 • Threshold: 150 • Mass Quad: 150°C • Mass Source: 230°C
Following the procedure of example 2, the headspace concentration of representative ingredients of fragrance COM1 was determined. COM1 was dosed at 5 and 20 % either in control EdT3 and EdT4 or in compositions of the invention C7 and C8, as shown in table 10.
The headspace concentration of individual ingredients of fragrance TAK (see Table 1), as formulated in either a conventional EdT (EdT1) or fragrance compositions of the invention (C14, C15), was assessed by the method described in example 2.

[3] = Table 9, fragrance COM1 in C5, T0 + 15 min
[4] = Table 9, fragrance COM1 in C5, T0 + 480 min
[5] = Table 9, fragrance COM1 in C5, T0 +1440 min
[6] = Table 9, fragrance COM1 in C6, T0 + 15 min
[7] = Table 9, fragrance COM1 in C6, T0 + 480 min
[8] = Table 9, fragrance COM1 in C6, T0 +1440 min
[9] = Table 9, fragrance COM1 in EdT2, C5 or C6, T0, set at 100% (normalisation)
[10] = Table 9, fragrance COM1 in EdT2, T0 + 15 min
[11] = Table 9, fragrance COM1 in EdT2, T0 + 480 min
[12] = Table 9, fragrance COM1 in EdT2, T0 +1440 min

Structure (SMILES): CC(C=O)Cc1ccc(C(C)(C)C)cc1 (stereo not drawn) [Lilial™, 3-(4-tert-Butylphenyl)-2-methylpropanal]
- amount of fragrance ingredient retained on blotter (percentage of the initial amount) ([1]; Table 3, fragrance TAK in C1, 15 min, 32°C): 78%
- amount of fragrance ingredient retained on blotter (percentage of the initial amount) ([1]; Table 3, fragrance TAK in C1, 60 min, 32°C): 79%
- amount of fragrance ingredient retained on blotter (percentage of the initial amount) ([1]; Table 3, fragrance TAK in C1, 120 min, 32°C): 75%
- amount of fragrance ingredient retained on blotter (percentage of the initial amount) ([1]; Table 3, fragrance TAK in C1, 240 min, 32°C): 72%
- amount of fragrance ingredient retained on blotter (percentage of the initial amount) ([1]; Table 3, fragrance TAK in C1, 480 min, 32°C): 51%
- amount of fragrance ingredient retained on blotter (percentage of the initial amount) ([1]; Table 3, fragrance TAK in EdT1, 15 min, 32°C): 91%
- amount of fragrance ingredient retained on blotter (percentage of the initial amount) ([1]; Table 3, fragrance TAK in EdT1, 60 min, 32°C): 84%
- amount of fragrance ingredient retained on blotter (percentage of the initial amount) ([1]; Table 3, fragrance TAK in EdT1, 120 min, 32°C): 75%
- amount of fragrance ingredient retained on blotter (percentage of the initial amount) ([1]; Table 3, fragrance TAK in EdT1, 240 min, 32°C): 65%
- amount of fragrance ingredient retained on blotter (percentage of the initial amount) ([1]; Table 3, fragrance TAK in EdT1, 480 min, 32°C): 23%
- amount of fragrance ingredient retained on blotter (percentage of the initial amount) ([1]; Table 3, fragrance TAK in EdT1 or C1, T0, set at 100% (normalisation)): 100%
- amount of fragrance ingredient retained on blotter (percentage of the initial amount) ([1]; Table 4, fragrance TAK in C2, 15 min, 32°C): 98%
- amount of fragrance ingredient retained on blotter (percentage of the initial amount) ([1]; Table 4, fragrance TAK in C2, 480 min, 32°C): 49%
- amount of fragrance ingredient retained on blotter (percentage of the initial amount) ([1]; Table 4, fragrance TAK in EdT1, 15 min, 32°C): 87%
- amount of fragrance ingredient retained on blotter (percentage of the initial amount) ([1]; Table 4, fragrance TAK in EdT1, 480 min, 32°C): 18%
- amount of fragrance ingredient retained on blotter (percentage of the initial amount) ([1]; Table 4, fragrance TAK in EdT1 or C2, T0, set at 100% (normalisation)): 100%
- amount of fragrance ingredient retained on blotter (percentage of the initial amount) ([1]; Table 5, fragrance TAK in C3, 15 min, 32°C): 88%
- amount of fragrance ingredient retained on blotter (percentage of the initial amount) ([1]; Table 5, fragrance TAK in C3, 60 min, 32°C): 92%
- amount of fragrance ingredient retained on blotter (percentage of the initial amount) ([1]; Table 5, fragrance TAK in C3, 120 min, 32°C): 90%
- amount of fragrance ingredient retained on blotter (percentage of the initial amount) ([1]; Table 5, fragrance TAK in C3, 240 min, 32°C): 87%
- amount of fragrance ingredient retained on blotter (percentage of the initial amount) ([1]; Table 5, fragrance TAK in C3, 480 min, 32°C): 60%
- amount of fragrance ingredient retained on blotter (percentage of the initial amount) ([1]; Table 5, fragrance TAK in C3, 1440 min, 32°C): 45%
- amount of fragrance ingredient retained on blotter (percentage of the initial amount) ([1]; Table 5, fragrance TAK in EdT1, 15 min, 32°C): 91%
- amount of fragrance ingredient retained on blotter (percentage of the initial amount) ([1]; Table 5, fragrance TAK in EdT1, 60 min, 32°C): 84%
- amount of fragrance ingredient retained on blotter (percentage of the initial amount) ([1]; Table 5, fragrance TAK in EdT1, 120 min, 32°C): 75%
- amount of fragrance ingredient retained on blotter (percentage of the initial amount) ([1]; Table 5, fragrance TAK in EdT1, 240 min, 32°C): 65%
- amount of fragrance ingredient retained on blotter (percentage of the initial amount) ([1]; Table 5, fragrance TAK in EdT1, 480 min, 32°C): 23%
- amount of fragrance ingredient retained on blotter (percentage of the initial amount) ([1]; Table 5, fragrance TAK in EdT1, 1440 min, 32°C): 6%
- amount of fragrance ingredient retained on blotter (percentage of the initial amount) ([1]; Table 5, fragrance TAK in EdT1 or C3, T0, set at 100% (normalisation)): 100%
- amount of fragrance ingredient retained on blotter (percentage of the initial amount) ([1]; Table 6, fragrance TAK in C4, 15 min, 32°C): 99%
- amount of fragrance ingredient retained on blotter (percentage of the initial amount) ([1]; Table 6, fragrance TAK in C4, 60 min, 32°C): 92%
- amount of fragrance ingredient retained on blotter (percentage of the initial amount) ([1]; Table 6, fragrance TAK in C4, 120 min, 32°C): 88%
- amount of fragrance ingredient retained on blotter (percentage of the initial amount) ([1]; Table 6, fragrance TAK in C4, 240 min, 32°C): 87%
- amount of fragrance ingredient retained on blotter (percentage of the initial amount) ([1]; Table 6, fragrance TAK in C4, 480 min, 32°C): 52%
- amount of fragrance ingredient retained on blotter (percentage of the initial amount) ([1]; Table 6, fragrance TAK in EdT1, 15 min, 32°C): 91%
- amount of fragrance ingredient retained on blotter (percentage of the initial amount) ([1]; Table 6, fragrance TAK in EdT1, 60 min, 32°C): 84%
- amount of fragrance ingredient retained on blotter (percentage of the initial amount) ([1]; Table 6, fragrance TAK in EdT1, 120 min, 32°C): 75%
- amount of fragrance ingredient retained on blotter (percentage of the initial amount) ([1]; Table 6, fragrance TAK in EdT1, 240 min, 32°C): 65%
- amount of fragrance ingredient retained on blotter (percentage of the initial amount) ([1]; Table 6, fragrance TAK in EdT1, 480 min, 32°C): 23%
- amount of fragrance ingredient retained on blotter (percentage of the initial amount) ([1]; Table 6, fragrance TAK in EdT1 or C4, T0, set at 100% (normalisation)): 100%
- headspace concentration in composition C1 compared to control EdT1 ([2]; fragrance TAK, T0 + 8h, Figure 4): significantly greater

Structure (SMILES): C=CC(C)(O)CCC=C(C)CC (mixture of isomers) [Ethyl Linalool, Ethyl linalool]
- amount of fragrance ingredient retained on blotter (percentage of the initial amount) [1, 3]: 80.96%
- amount of fragrance ingredient retained on blotter (percentage of the initial amount) [1, 4]: 8.4%
- amount of fragrance ingredient retained on blotter (percentage of the initial amount) [1, 5]: 2.22%
- amount of fragrance ingredient retained on blotter (percentage of the initial amount) [1, 6]: 70.8%
- amount of fragrance ingredient retained on blotter (percentage of the initial amount) [1, 7]: 6.9%
- amount of fragrance ingredient retained on blotter (percentage of the initial amount) [1, 8]: 2.6%
- amount of fragrance ingredient retained on blotter (percentage of the initial amount) [1, 9]: 100%
- amount of fragrance ingredient retained on blotter (percentage of the initial amount) [1, 10]: 67.48%
- amount of fragrance ingredient retained on blotter (percentage of the initial amount) [1, 11]: 9.91%
- amount of fragrance ingredient retained on blotter (percentage of the initial amount) [1, 12]: 7.26%
- headspace concentration in composition C8 compared to control EdT4 ([2]; COM1 dosed at 20 wt%, up to 8 hours, Figures 8 to 10): significantly higher

Structure (SMILES): CC/C=C(\C)C(O)CCCCC (stereo not drawn) [Undecavertol™, (E)-4-methyldec-3-en-5-ol]
- amount of fragrance ingredient retained on blotter (percentage of the initial amount) [1, 3]: 84.6%
- amount of fragrance ingredient retained on blotter (percentage of the initial amount) [1, 4]: 19.1%
- amount of fragrance ingredient retained on blotter (percentage of the initial amount) [1, 5]: 2.62%
- amount of fragrance ingredient retained on blotter (percentage of the initial amount) [1, 6]: 73.2%
- amount of fragrance ingredient retained on blotter (percentage of the initial amount) [1, 7]: 14%
- amount of fragrance ingredient retained on blotter (percentage of the initial amount) [1, 8]: 3.1%
- amount of fragrance ingredient retained on blotter (percentage of the initial amount) [1, 9]: 100%
- amount of fragrance ingredient retained on blotter (percentage of the initial amount) [1, 10]: 75.7%
- amount of fragrance ingredient retained on blotter (percentage of the initial amount) [1, 11]: 8.41%
- amount of fragrance ingredient retained on blotter (percentage of the initial amount) [1, 12]: 4.93%
- presence in the headspace of composition C8 compared to control EdT4 ([2]; COM1 dosed at 20 wt%, after 8 hours): more present
